Experimental data reported in PubChem BioAssay AID1845201 (Molecular Pharmacology Branch, DTP, NCI, 2023).

Test system: COR L88 complex tumor spheroid viability
Experiment: Anticancer human tumor COR L88 cell line growth inhibition;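 further: compound exposure lasted 7 days before viability readout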;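 on viability, T/C: percent of DMSO vehicle-treated spheroids = 100%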
Conditions: for IC50: curve of first compound; for viability, T/C: stronger effect = lower value
Summary of the method: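 Single agents and combinations were tested on spheroids built from tumor cells plus HUVEC and hMSC, at half-log dilutions starting at or near clinical Cmax, else 10 microM; final DMSO 0.25% (v/v).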

COc1ccc([C@@H](O)c2cc(-c3ncnc4cc(N5CCOCC5)ccc34)c(F)cc2Cl)nn1 + Cn1nnc2c(C(N)=O)ncn2c1=O
IC50 (second compound 1 µM): 5.38 µM
IC50 (second compound 3.16 µM): 8.27 µM
IC50 (second compound 10 µM): > 10 µM
IC50 (second compound 31.6 µM): > 10 µM
IC50 (second compound 100 µM): > 10 µM
viability, T/C (second compound 1 µM, first compound 0.0316 µM): 96.4%
viability, T/C (second compound 1 µM, first compound 0.1 µM): 94.1%
viability, T/C (second compound 1 µM, first compound 0.316 µM): 82%
viability, T/C (second compound 1 µM, first compound 1 µM): 78.3%
viability, T/C (second compound 1 µM, first compound 3.16 µM): 61.4%
viability, T/C (second compound 1 µM, first compound 10 µM): 36.7%
viability, T/C (second compound 3.16 µM, first compound 0.0316 µM): 92.8%
viability, T/C (second compound 3.16 µM, first compound 0.1 µM): 104%
viability, T/C (second compound 3.16 µM, first compound 0.316 µM): 90.9%
viability, T/C (second compound 3.16 µM, first compound 1 µM): 88.2%
viability, T/C (second compound 3.16 µM, first compound 3.16 µM): 64.3%
viability, T/C (second compound 3.16 µM, first compound 10 µM): 47.2%
viability, T/C (second compound 10 µM, first compound 0.0316 µM): 87%
viability, T/C (second compound 10 µM, first compound 0.1 µM): 98.7%
viability, T/C (second compound 10 µM, first compound 0.316 µM): 92%
viability, T/C (second compound 10 µM, first compound 1 µM): 75.1%
viability, T/C (second compound 10 µM, first compound 3.16 µM): 67.9%
viability, T/C (second compound 10 µM, first compound 10 µM): 54.6%
viability, T/C (second compound 31.6 µM, first compound 0.0316 µM): 89.3%
viability, T/C (second compound 31.6 µM, first compound 0.1 µM): 79.9%
viability, T/C (second compound 31.6 µM, first compound 0.316 µM): 84.6%
viability, T/C (second compound 31.6 µM, first compound 1 µM): 73.9%
viability, T/C (second compound 31.6 µM, first compound 3.16 µM): 67.2%
viability, T/C (second compound 31.6 µM, first compound 10 µM): 51.3%
viability, T/C (second compound 100 µM, first compound 0.0316 µM): 69.9%
viability, T/C (second compound 100 µM, first compound 0.1 µM): 70.8%
viability, T/C (second compound 100 µM, first compound 0.316 µM): 68%
viability, T/C (second compound 100 µM, first compound 1 µM): 62.5%
viability, T/C (second compound 100 µM, first compound 3.16 µM): 58.1%
viability, T/C (second compound 100 µM, first compound 10 µM): 55.4%
